Laboratory results from patent US20240130988A1, “Use of stilbene compounds in the preparation of anti-tumor drugs” (Guangzhou AnHao Pharmaceutical Technology CO., LTD., priority 2022, published 2024).
Marks after values point to notes of the source that are not given here.

How the values were obtained:
Format in all cases: in vivo, BALB/C nude mice
[1] = test system: human lung cancer A549; assay: Human lung cancer A549 transplanted tumors in nude mice; conditions: A549, 400 mg/kg ig × 14; for inhibition in vivo at 400 mg/kg: Mus musculus, po, read-out: Tumor inhibitory rate %
Description: In this experiment, a human lung cancer A549 model transplanted into nude mice was selected to study the anti-tumor effect of test compounds. The mice were treated at a dosage of 400 mg/kg by gavage for 14 days, and the tumor inhibition rate against human lung cancer A549 was measured.
Preparation: The compound was prepared as the solution at the desired concentration with distilled water, prior to administration.
Animal strain: BALB/C nude mice (SPF grade), weight: 19-21 g, gender: male. Number of animals in each treatment group: 8; Number of animals in the control group: >12.
(§1) Lung cancer A549 tumor blocks with good growth were chosen and cut into uniform small pieces of 3 mm under sterile conditions, and then subcutaneously inoculated into the right armpit of each mouse with a cannula. These mice were divided into 9 groups, 8 mice for each treatment group, while more than 12 mice were included in the control group.
14 days after inoculation, the average volume of the tumor mass was about 100 mm^3. The animals were regrouped based on the size of the tumor, and the mice with tumors that were too large and too small were eliminated. For each group, the average volume of tumors was basically the same, and then the mice were treated with test compounds. The mice in the treatment groups were administered once a day by gavage for 14 successive days, at a dosage of 0.5 mL/20 g body weight; the mice in the control group were given the same volume of physiological saline. From the 14th day of inoculation, the long diameter a (mm) of the tumor, together with the perpendicular short diameter b (mm), was measured using a digital electronic caliper, twice a week. The calculation formula of tumor volume is: TV=ab^2/2, and the formula for calculating the relative tumor volume is RTV=Vt/Vo, wherein Vo denotes the tumor volume measured when the mice were divided into groups (i.e. d1), and Vt is the tumor volume from each measurement.
(§2) The result determination is based on the following formula: […]

[2] = test system: human gastric cancer MGC803; assay: Human gastric cancer MGC803 transplanted tumor in nude mice; conditions: MGC803, 200 mg/kg ip × 14
Description: A human gastric cancer MGC803 model transplanted into nude mice was used in the experiment to investigate the anti-tumor effect of test compounds.
(§3) Preparation: The compound was prepared as the injection at the desired concentration with sterile normal saline, prior to administration.
(§4) Animal strain: BALB/C nude mice (SPF grade), weight: 19-21 g, gender: male.
(§5) Number of animals in each treatment group: 8; number of animals in the control group: >12.
as §1, with “The” for “Lung cancer A549”, “blocks of human gastric cancer MGC803” for “blocks”, “were” for “were chosen and”
(§6) 14 days after inoculation, the average volume of the tumor block was about 100 mm^3. The animals were regrouped based on the size of the tumor, and the animals with tumors that were too large and too small were sifted out. For each group, the average volume of tumors was basically the same, and then the mice were initially treated with test compounds. The mice were intraperitoneally injected once a day for 14 days, at a dosage of 0.2 mL/20 g body weight. From the 14th day of inoculation, the long diameter a (mm) of the tumor, together with the perpendicular short diameter b (mm), was measured using a digital electronic caliper, twice a week. The calculation formula of tumor volume is: TV=ab^2/2, and the formula for calculating the relative tumor volume is RTV=Vt/Vo, wherein Vo denotes the tumor volume measured when the mice were divided into groups(i.e. d1), and Vt is the tumor volume from each measurement.
as §2

[3] = test system: human prostate cell LNCaP; assay: Human prostate cell LNCaP transplanted tumor in nude mice
Description: A human prostate cell LNCaP model transplanted into nude mice was used in the experiment to investigate the anti-tumor effect of test compounds.
as §3, §4, §5
as §1, with “The” for “Lung cancer A549”, “blocks of human prostate cell LNCaP” for “blocks”, “were” for “were chosen and”, “The” for “These”, “>12” for “more than 12”, “group,” for “group.”
as §6, with “sifted out,” for “sifted out.”, “body weight; the mice in the control group were given the same volume of sterile normal saline.” for “body weight.”, “volume is: RTV=Vt/[…],” for “volume is RTV=Vt/Vo,”, “into groups (i.e.” for “into groups(i.e.”, “Vt denotes” for “Vt is”
as §2

[4] = test system: human renal cell carcinoma AGHN; assay: Human renal cell carcinoma AGHN transplanted tumor in nude mice
Description: A human renal cell carcinoma AGHN model transplanted into nude mice was used in the experiment to investigate the anti-tumor effect of test compounds. […] AGHN was measured.
as §3
Animal strain: BALB/C, nude mice (SPF grade), weight: 19-21 g, gender: male. Number of animals in each treatment group: 8; number of animals in the control group: >12.
as §1, with “The” for “Lung cancer A549”, “blocks of human renal cell carcinoma AGHN” for “blocks”, “were” for “were chosen and”, “The” for “These”, “>12” for “more than 12”
14 days after inoculation, the average volume of the tumor block was about 100 mm^3, The animals were regrouped based on the size of the tumor, and the animals with tumors that were too large and too small were sifted out. For each group, the average volume of tumors was basically the same, and then the mice were initially treated with test compounds. The mice were intraperitoneally injected once a day for 14 days, at a dosage of 0.2 mL/20 g body weight; the mice in the control group were given the same volume of sterile normal saline. From the 14th day of inoculation, the long diameter a (mm) of the tumor, together with the perpendicular short diameter b (mm), was measured using a digital electronic caliper, twice a week. The calculation formula of tumor volume is: TV=ab^2/2, and the formula for calculating the relative tumor volume is: RTV=Vt/Vo, wherein Vo denotes the tumor volume measured when the mice were divided into groups (i.e. d1), and Vt denotes the tumor volume from each measurement.
as §2

[5] = 200 mg/kg ip × 14, listed as compound 4, 200 mg/kg

| SMILES | RTV (d 22) [1] | inhibition in vivo at 400 mg/kg [1] [%] | RTV (d 18) [2] | Tumor inhibitory rate % [2] | RTV (d 18) ([3]; 200 mg/kg ip × 14) | Tumor inhibitory rate % ([3]; 200 mg/kg ip × 14) | RTV (d 18) ([4]; 200 mg/kg ip × 14) | Tumor inhibitory rate % ([4]; 200 mg/kg ip × 14) | Tumor inhibitory rate % ([3]; 200 mg/kg ip × 14, 200 mg/kg) [%] | Tumor inhibitory rate % [3, 5] | Tumor inhibitory rate % ([4]; 200 mg/kg ip × 14, 200 mg/kg) [%] | Tumor inhibitory rate % [4, 5] | Tumor inhibitory rate % [1] | Tumor inhibitory rate % ([2]; listed as compound 6) |
| --- | --- | --- | --- | --- | --- | --- | --- | --- | --- | --- | --- | --- | --- | --- |
| COc1ccc(/C=C(/C(=O)O)c2cc(OC)c(OC)c(OC)c2)c(O)c1O [Compound 1, (E)-3-(2,3-dihydroxy-4-methoxyphenyl)-2-(3,4,5-trimethoxylphenyl)acrylic acid] | 4.27 ± 0.48 | 63.6 | 5.87 ± 0.63 | 49.05^## % | 4.92 ± 0.82 | 56.27^## % | 6.31 ± 0.91 | 54.24^## % |  |  |  |  |  |  |
| COc1cc(/C=C(/C(=O)O)c2cc(OC)c(OC)c(OC)c2)cc(OC)c1 [Compound 3, (E)-3-(3,5-dimethoxyphenyl)-2-(3,4,5-trimethoxyphenyl)acrylic acid] | 4.52 ± 0.76 | 61.5 | 4.79 ± 0.54 | 58.42^## % | 4.77 ± 0.71 | 60.87^## % | 5.47 ± 0.82 | 60.33^# % |  |  |  |  |  |  |
| COc1ccc(/C=C(/C(=O)O)c2cc(OC)c(OC)c(OC)c2)cc1F [Compound 4, (E)-3-(3-fluoro-4-methoxyphenyl)-2-(3,4,5-trimethoxyphenyl)acrylic acid] | 5.23 ± 1.43 | 55.5 |  |  | 3.73 ± 0.60 |  | 4.31 ± 0.58 |  | 69.40 | best inhibitory effect on prostate cancer | 68.75 | best inhibitory effect on renal cell carcinoma |  |  |
| COc1ccc(/C=C(/C(=O)O)c2cc(OC)c(OC)c(OC)c2)cc1O [Compound 6, (E)-3-(3-hydroxy-4-methoxyphenyl)-2-(3,4,5-trimethoxyphenyl)acrylic acid] | 2.51 ± 0.94 | 78.6 | 3.43 ± 0.51 | 70.23% | 4.27 ± 0.92 | 64.97^# % | 6.53 ± 0.85 | 52.64^## % |  |  |  |  | best inhibitory effect on lung cancer | best inhibitory effect on gastric cancer |
| COc1cc(/C(=C\c2cc(O)c(OC)c(F)c2)C(=O)O)cc(OC)c1OC [Compound 8, (E)-3-(5-fluoro-3-hydroxy-4-methoxyphenyl)-2-(3,4,5-trimethoxyphenyl)acrylic acid] | 4.22 ± 0.75 | 64.1 | 4.59 ± 0.47 | 60.16^## % | 6.72 ± 0.85 | 44.87^## % | 6.22 ± 0.63 | 54.89^## % |  |  |  |  |  |  |
| COc1ccc(/C=C(/C(=O)O)c2cc(OC)c(OC)c(OC)c2)c(F)c1O [Compound 9, (E)-3-(2-fluoro-3-hydroxy-4-methoxyphenyl)-2-(3,4,5-trimethoxyphenyl)acrylic acid] |  |  |  |  |  |  | 5.12 ± 0.77 | 62.87^# % |  |  |  |  |  |  |
| COc1cc(/C=C(/C(=O)[O-])c2cc(OC)c(OC)c(OC)c2)cc(OC)c1F.[K+] [Compound 10] |  |  | 4.21 ± 0.58 | 63.45^# % | 4.55 ± 0.81 | 62.67^# % |  |  |  |  |  |  |  |  |
| COc1cc(/C(=C\c2cc(O)c(OC)c(O)c2)C(=O)O)cc(OC)c1OC [Compound 11, (E)-3-(3,5-dihydroxy-4-methoxyphenyl)-2-(3,4,5-trimethoxyphenyl)acrylic acid] | 4.07 ± 0.51 | 65.4 | 4.72 ± 0.61 | 59.03^## % |  |  |  |  |  |  |  |  |  |  |
